Laboratory results reported in PMC9963398, “Discovery of New Quinolone-Based Diarylamides as Potent B-RAF^V600E/C-RAF Kinase Inhibitors Endowed with Promising In Vitro Anticancer Activity” (International Journal of Molecular Sciences, 2023).

Tests used:
B-RAF^V600E = target: T1, B-RAF^V600E (Homo sapiens, UniProt P15056, V600E); experiment: HotSpot kinase assay (RBC), B-RAF^V600E; type: biochemical
T1 construct: purchased Reaction Biology Corporation (RBC), Kinase HotSpot service

OVCAR-3 = experiment: NCI-60 five-dose SRB assay; type: cell-based; details: Homo sapiens; OVCAR-3, Ovarian cancer, five-dose test
Protocol: (§1) The anticancer screening of target compounds over a full panel of 60 human cancer cell lines was carried out using Sulforhodamine B (SRB) assay at the National Cancer Institute (NCI), Bethesda, Maryland, USA, employing the standard protocol.

T-47D = experiment: NCI-60 five-dose SRB assay; type: cell-based; details: Homo sapiens, T47D, Breast cancer, five-dose test
Protocol: as §1

SF-539 = experiment: NCI-60 five-dose SRB assay; type: cell-based; details: Homo sapiens; SF-539, CNS cancer, five-dose test
Protocol: as §1

ACHN = experiment: NCI-60 five-dose SRB assay; type: cell-based; details: Homo sapiens, Renal cancer, five-dose test
Protocol: as §1

NCI-H322M = experiment: NCI-60 five-dose SRB assay; type: cell-based; details: Homo sapiens, NSCL cancer, five-dose test
Protocol: as §1

LOX IMVI = experiment: NCI-60 five-dose SRB assay; type: cell-based; details: Homo sapiens, Melanoma, five-dose test
Protocol: as §1

OVCAR-4 = experiment: NCI-60 five-dose SRB assay; type: cell-based; details: Homo sapiens; OVCAR-4, Ovarian cancer, five-dose test
Protocol: as §1

HCC-2998 = experiment: NCI-60 five-dose SRB assay; type: cell-based; details: Homo sapiens; HCC-2998, Colon cancer, five-dose test
Protocol: as §1

SK-OV-3 = experiment: NCI-60 five-dose SRB assay; type: cell-based; details: Homo sapiens; SK-OV-3, Ovarian cancer, five-dose test
Protocol: as §1

NCI-H226 = experiment: NCI-60 five-dose SRB assay; type: cell-based; details: Homo sapiens; NCI-H226, NSCL cancer, five-dose test
Protocol: as §1

U251 = experiment: NCI-60 five-dose SRB assay; type: cell-based; details: Homo sapiens, U-251; U251, CNS cancer, five-dose test
Protocol: as §1

SK-MEL-5 = experiment: NCI-60 five-dose SRB assay; type: cell-based; details: Homo sapiens; SK-MEL-5, Melanoma, five-dose test
Protocol: as §1

RPMI-8226 = experiment: NCI-60 five-dose SRB assay; type: cell-based; details: Homo sapiens; RPMI-8226, Leukemia, five-dose test
Protocol: as §1

SW-620 = experiment: NCI-60 five-dose SRB assay; type: cell-based; details: Homo sapiens; SW-620, Colon cancer, five-dose test
Protocol: as §1

HT29 = experiment: NCI-60 five-dose SRB assay; type: cell-based; details: Homo sapiens, HT-29; HT29, Colon cancer, five-dose test
Protocol: as §1

DU-145 = experiment: NCI-60 five-dose SRB assay; type: cell-based; details: Homo sapiens; DU-145, Prostate cancer, five-dose test
Protocol: as §1

SK-MEL-2 = experiment: NCI-60 five-dose SRB assay; type: cell-based; details: Homo sapiens; SK-MEL-2, Melanoma, five-dose test
Protocol: as §1

K-562 = experiment: NCI-60 five-dose SRB assay; type: cell-based; details: Homo sapiens, K562; K-562, Leukemia, five-dose test
Protocol: as §1

TK-10 = experiment: NCI-60 five-dose SRB assay; type: cell-based; details: Homo sapiens; TK-10, Renal cancer, five-dose test
Protocol: as §1

OVCAR-5 = experiment: NCI-60 five-dose SRB assay; type: cell-based; details: Homo sapiens; OVCAR-5, Ovarian cancer, five-dose test
Protocol: as §1

BT-549 = experiment: NCI-60 five-dose SRB assay; type: cell-based; details: Homo sapiens; BT-549, Breast cancer, five-dose test
Protocol: as §1

SR = experiment: NCI-60 five-dose SRB assay; type: cell-based; details: Homo sapiens, Leukemia, five-dose test
Protocol: as §1

A498 = experiment: NCI-60 five-dose SRB assay; type: cell-based; details: Homo sapiens; A498, Renal cancer, five-dose test
Protocol: as §1

HCT-116 = experiment: NCI-60 five-dose SRB assay; type: cell-based; details: Homo sapiens; HCT-116, Colon cancer, five-dose test
Protocol: as §1

NCI-H23 = experiment: NCI-60 five-dose SRB assay; type: cell-based; details: Homo sapiens; NCI-H23, NSCL cancer, five-dose test
Protocol: as §1

HCT-15 = experiment: NCI-60 five-dose SRB assay; type: cell-based; details: Homo sapiens; HCT-15, Colon cancer, five-dose test
Protocol: as §1

UO-31 = experiment: NCI-60 five-dose SRB assay; type: cell-based; details: Homo sapiens; UO-31, Renal cancer, five-dose test
Protocol: as §1

NCI-H522 = experiment: NCI-60 five-dose SRB assay; type: cell-based; details: Homo sapiens; NCI-H522, NSCL cancer, five-dose test
Protocol: as §1

SN12C = experiment: NCI-60 five-dose SRB assay; type: cell-based; details: Homo sapiens, Renal cancer, five-dose test
Protocol: as §1

HL-60(TB) = experiment: NCI-60 five-dose SRB assay; type: cell-based; details: Homo sapiens, Leukemia, five-dose test
Protocol: as §1

786-0 = experiment: NCI-60 five-dose SRB assay; type: cell-based; details: Homo sapiens; 786-0, Renal cancer, five-dose test
Protocol: as §1

CCRF-CEM = experiment: NCI-60 five-dose SRB assay; type: cell-based; details: Homo sapiens, Leukemia, five-dose test
Protocol: as §1

CAKI-1 = experiment: NCI-60 five-dose SRB assay; type: cell-based; details: Homo sapiens; CAKI-1, Renal cancer, five-dose test
Protocol: as §1

OVCAR-8 = experiment: NCI-60 five-dose SRB assay; type: cell-based; details: Homo sapiens; OVCAR-8, Ovarian cancer, five-dose test
Protocol: as §1

SNB-19 = experiment: NCI-60 five-dose SRB assay; type: cell-based; details: Homo sapiens; SNB-19, CNS cancer, five-dose test
Protocol: as §1

RXF 393 = experiment: NCI-60 five-dose SRB assay; type: cell-based; details: Homo sapiens; RXF 393, Renal cancer, five-dose test
Protocol: as §1

MDA-MB-435 = experiment: NCI-60 five-dose SRB assay; type: cell-based; details: Homo sapiens; MDA-MB-435, Melanoma, five-dose test
Protocol: as §1

HOP-62 = experiment: NCI-60 five-dose SRB assay; type: cell-based; details: Homo sapiens; HOP-62, NSCL cancer, five-dose test
Protocol: as §1

MALME-3M = experiment: NCI-60 five-dose SRB assay; type: cell-based; details: Homo sapiens, Melanoma, five-dose test
Protocol: as §1

M14 = experiment: NCI-60 five-dose SRB assay; type: cell-based; details: Homo sapiens; M14, Melanoma, five-dose test
Protocol: as §1

EKVX = experiment: NCI-60 five-dose SRB assay; type: cell-based; details: Homo sapiens, NSCL cancer, five-dose test
Protocol: as §1

[1] = 10 µM ATP, 10-dose singlicate IC50 mode

T1 sequence (P15056 whole entry V600E): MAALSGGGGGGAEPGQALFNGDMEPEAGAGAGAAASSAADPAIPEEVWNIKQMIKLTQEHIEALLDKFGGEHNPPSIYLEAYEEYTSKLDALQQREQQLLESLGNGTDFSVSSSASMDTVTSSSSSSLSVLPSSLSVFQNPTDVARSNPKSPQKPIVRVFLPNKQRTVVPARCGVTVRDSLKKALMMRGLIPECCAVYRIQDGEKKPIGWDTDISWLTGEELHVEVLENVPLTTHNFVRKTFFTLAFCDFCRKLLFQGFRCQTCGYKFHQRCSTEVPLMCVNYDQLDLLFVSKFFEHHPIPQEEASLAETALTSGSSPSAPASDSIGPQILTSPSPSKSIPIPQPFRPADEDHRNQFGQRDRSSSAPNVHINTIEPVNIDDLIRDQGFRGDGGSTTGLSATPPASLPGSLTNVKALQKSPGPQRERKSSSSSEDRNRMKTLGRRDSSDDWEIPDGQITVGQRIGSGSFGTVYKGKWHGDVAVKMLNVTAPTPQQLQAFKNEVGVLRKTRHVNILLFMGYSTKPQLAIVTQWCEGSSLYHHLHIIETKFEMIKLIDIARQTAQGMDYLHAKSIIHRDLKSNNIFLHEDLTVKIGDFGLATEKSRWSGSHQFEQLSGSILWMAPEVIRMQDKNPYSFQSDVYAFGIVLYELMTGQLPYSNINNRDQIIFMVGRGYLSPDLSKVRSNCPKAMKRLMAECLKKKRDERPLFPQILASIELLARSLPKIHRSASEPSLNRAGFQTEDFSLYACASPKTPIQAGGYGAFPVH

CN1CCN(Cc2ccc(C(=O)Nc3cccc(Nc4ccc5c(O)cccc5n4)c3)cc2C(F)(F)F)CC1 [Compound 17a, N-(3-((5-hydroxyquinolin-2-yl)amino)phenyl)-4-((4-methylpiperazin-1-yl)methyl)-3-(trifluoromethyl)benzamide]
IC50 (B-RAF^V600E; [1]): 0.137 ± 0.0132 µM | GI50 (OVCAR-3): 3.1 µM | GI50 (T-47D): 10.7 µM | GI50 (SF-539): 1.67 µM | GI50 (ACHN): 2.07 µM | GI50 (NCI-H322M): 3.23 µM | GI50 (LOX IMVI): 1.65 µM | GI50 (OVCAR-4): 7.39 µM | GI50 (HCC-2998): 1.89 µM | GI50 (SK-OV-3): 14.4 µM | GI50 (NCI-H226): 19.2 µM | GI50 (U251): 2.38 µM | GI50 (SK-MEL-5): 1.68 µM | GI50 (RPMI-8226): 2.92 µM | GI50 (SW-620): 2.24 µM | GI50 (HT29): 2.06 µM | GI50 (DU-145): 4.68 µM | GI50 (SK-MEL-2): 1.92 µM | GI50 (K-562): 2.42 µM | GI50 (TK-10): 3.36 µM | GI50 (OVCAR-5): 3.24 µM | GI50 (BT-549): 15.6 µM | GI50 (SR): 4.39 µM | GI50 (A498): 17.5 µM | GI50 (HCT-116): 2.7 µM | GI50 (NCI-H23): 2.26 µM | GI50 (HCT-15): 1.82 µM | GI50 (UO-31): 1.99 µM | GI50 (NCI-H522): 1.93 µM | GI50 (SN12C): 2.34 µM | GI50 (HL-60(TB)): 2.47 µM | GI50 (786-0): 2.11 µM | GI50 (CCRF-CEM): 2.91 µM | GI50 (CAKI-1): 2.13 µM | GI50 (OVCAR-8): 3.56 µM | GI50 (SNB-19): 2.39 µM | GI50 (RXF 393): 1.66 µM | GI50 (MDA-MB-435): 1.78 µM | GI50 (HOP-62): 3 µM | GI50 (MALME-3M): 1.67 µM | GI50 (M14): 2.21 µM | GI50 (EKVX): 3.75 µM

CN1CCN(Cc2ccc(C(=O)Nc3cccc(Nc4ccc5cc(O)ccc5n4)c3)cc2C(F)(F)F)CC1 [Compound 18a, N-(3-((6-hydroxyquinolin-2-yl)amino)phenyl)-4-((4-methylpiperazin-1-yl)methyl)-3-(trifluoromethyl)benzamide]
IC50 (B-RAF^V600E; 1 µM ATP): 0.0843 ± 0.009 µM | IC50 (B-RAF^V600E; [1]): 0.114 ± 0.00495 µM | GI50 (OVCAR-3): 11.2 µM | GI50 (T-47D): 14.6 µM | GI50 (SF-539): 1.98 µM | GI50 (ACHN): 7.59 µM | GI50 (NCI-H322M): 11 µM | GI50 (LOX IMVI): 1.73 µM | GI50 (OVCAR-4): 11.2 µM | GI50 (HCC-2998): 2.39 µM | GI50 (SK-OV-3): 16.5 µM | GI50 (NCI-H226): 16 µM | GI50 (U251): 2.17 µM | GI50 (SK-MEL-5): 2.35 µM | GI50 (RPMI-8226): 2.65 µM | GI50 (SW-620): 2.3 µM | GI50 (HT29): 3.37 µM | GI50 (DU-145): 10.5 µM | GI50 (SK-MEL-2): 13.5 µM | GI50 (K-562): 1.88 µM | GI50 (TK-10): 21.4 µM | GI50 (OVCAR-5): 14.2 µM | GI50 (BT-549): 12.2 µM | GI50 (SR): 2.68 µM | GI50 (A498): 22.5 µM | GI50 (HCT-116): 3.93 µM | GI50 (NCI-H23): 13.9 µM | GI50 (HCT-15): 2.09 µM | GI50 (UO-31): 13.4 µM | GI50 (NCI-H522): 4.82 µM | GI50 (SN12C): 14.1 µM | GI50 (HL-60(TB)): 2.58 µM | GI50 (786-0): 3.13 µM | GI50 (CCRF-CEM): 3.48 µM | GI50 (CAKI-1): 11.9 µM | GI50 (OVCAR-8): 13.2 µM | GI50 (SNB-19): 13.8 µM | GI50 (RXF 393): 3.55 µM | GI50 (MDA-MB-435): 8.53 µM | GI50 (HOP-62): 12.1 µM | GI50 (MALME-3M): 1.59 µM | GI50 (M14): 9.06 µM | GI50 (EKVX): 14.2 µM
